# Assay results published in paper PMC7937321 (Genes and Environment, 2021).
# Key:
# TK6 cells = assay: Toxicoproteomic analysis of treated TK6 cells (LC-MS/MS, DEPs, enrichment analysis); assay type: cell-based, human; settings: specific DEPs 24-h 800 μg/mL
# Protocol: We conducted a proteomic analysis using TK6 cells treated by 4-nitroanthranilic acid that was negative in the short-term treatment and positive in the 24 h treatment. HC Blue No. 2 gave also same test results. […]
# Raw MS data were processed by MaxQuant (version 1.6.3.3) supported by the Andromeda search engine for peak detection and quantification. […]
# All NaN values of log2 LFQ intensities were converted to − 7, which is approximately equivalent to the minimum value of the LFQ intensities observed in the present study. Then, fold change values were calculated by dividing LFQ intensities (antilogarithms of the log2 LFQ intensities) into sample treated groups by intensities in non-treated (control) groups, respectively (4 and 24 h treated groups). Then, log2 fold changes were calculated. […]
# rodent = settings: rodent; ref [20]-[41], Table 2; cited from earlier work
smiles,measurement,setting,value
Nc1cc([N+](=O)[O-])ccc1C(=O)O [4-Nitroanthranilic acid],Count: GO:0005515 ~ protein binding,TK6 cells; Down-regulated,34
same,Count: GO:0005515 ~ protein binding,TK6 cells; Up-regulated,88
same,Carcinogenicity Studies,rodent,Neg
